Entries after “also recorded” stand apart in the source; their conditions may differ.
Key:
B16 cells = test: Apoptosis of B16 cells (microscopy, Hoechst, Annexin V FACS); format: cell-based, murine; conditions: in combination with HXArg9(2D)
Protocol: FIG. 5(b): Light micrographs of B16 cells treated with 60 μM HXArg9(2D) (HXR9) or CX2Arg9(2D) (CXR9) for two hours. Scale bar=40 μm.
FIG. 5(c) Transmission electron micrographs of B16 cells treated with 60 μM HXR9 or CXR9 for two hours. Scale bar=[…].
FIG. 5(d) FACS sorting of B16 cells with Annexin. Cells were treated as indicated above each plot. The lower left hand quadrant represents normal, viable cells. The bottom and top right hand quadrants represent cells in early and late apoptosis, respectively, and the top left hand quadrant represents cells in necrosis.
Apoptotic morphology was determined using scanning electron microscopy and fluorescence microscopy. Changes in nuclear morphology were assessed by fixing B-16 cytospins with ice-cold methanol at room temperature for five minutes. The fixed cells were stained with Hoechst 33258 (2 μg/ml) (Sigma) and mounted using VECTASHIELD® mounting medium (Vector) and analyzed by fluorescence microscopy (Nikon Eclipse TE 2000-S).
An additional sign of apoptosis is the appearance of phosphatidylserine in the cell membrane (Koopman, G. et al. Blood 84, 1415-1420 (1994)). This can be detected by fluorescencently labeled Annexin V protein and cell sorting using FACS.
This is a specific inhibitor of the caspase proteases, which are key components of the apotopic pathway (Zhu, H., et al. FEBS Lett. 374, 303-308 (1995)).

[1] = test system: malignant cell lines (B16 mouse melanoma, LNCAP human prostate cancer, K562); test: Activity of peptides on different malignant cell lines, living and dead cells after 3 hours (FIGS. 6 to 8); format: cell-based; conditions: for effect on living/dead cells, cell proliferation: 60 μM or 6 μM, 3 hour exposures, melanoma, prostate cancer and leukaemia cells
Protocol: (§1) The peptides as indicated were applied to the cells at a concentration of 60 μM (FIG. 6A) or 6 μM (FIG. 6B). In both experiments the HXArg9, CX1Arg9 and CX2Arg9 peptides used were the (2D) variant peptides in which the N- and C-terminal amino acids are in the D conformation and all remaining amino acids are in the L conformation. The number of living and dead cells were assessed after 3 hours. Black bars=% or number of cells dead. White bars=% or number of cells alive.
as §1, with “7A)” for “6A)”, “7B).” for “6B).”
as §1, with “μM. HXArg9(2D) is” for “μM (FIG. 6A) or 6 μM (FIG. 6B). In both experiments”, “variant form of HXArg9 in which the N-terminal and C-terminal amino acids are in the D conformation and the remaining amino acids are in the L conformation. HXArg9 consists of only L-conformation amino acids. The” for “HXArg9,”, “bars=%” for “bars=% or number of”
(§2) Cell lines were seeded at 4×10^4 cells/ml in liquid culture system made of RPMI-1640 medium (Life Technologies, UK) supplemented with Foetal Calf Serum (10% Sigma Aldrich) and penicillin/streptomycin (1%, Sigma) and at least in duplicate. When required the test peptide was added to the medium. Cell lines were cultured for up to 7 days at 37° C., 5% CO2 in humidified atmosphere. Cultured cells were then assessed for cell viability/enumeration using trypan blue exclusion (Sigma Aldrich).
The activity of the peptides described above was tested on a number of different malignant cell lines using a similar assay to that described previously.

[2] = test system: malignant cell lines (B16 mouse melanoma, LNCAP human prostate cancer, K562); conditions: time scale in which HXP4 shows an effect; cited from earlier work
[3] = Stability of peptides in human plasma at 37° C., SDS-PAGE; format: in vitro ADME; conditions: 1 mM peptide
Protocol: Peptides were incubated in human serum for the times shown and then visualised on a Coomassie brilliant blue stained gel. The arrow heads indicate the position of intact peptide. Standard=peptide only in this lane as a marker.
The stability of HXArg9(2D) and CX2Arg9(2D) was assessed by incubation each with human plasma at 37° C. and the amount of peptide remaining after different amounts of time was assessed by SDS-PAGE. Each peptide was added to freshly prepared human plasma to a final concentration of 1 mM in a total volume of 40 μl. Samples were incubated at 37° C. and reactions were stopped by adding 60 μl of water and 0.9 ml of protein gel loading buffer (BioRad, USA) containing 1% 2-mercaptoethanol, and heating to 95° C. for four minutes. 2 μl of each sample was run on a 22% acrylamide gel. […] This compared with a half life of approximately 40 minutes for the L isomer form HXArg9.

[4] = test system: A498 (Human renal cancer); format: cell-based
Description: (§3) FIG. 5(a): MTT assays to determine the IC50 of the control and hexapeptide-containing peptides.
(§4) These include prostate (Miller, G. J. et al. Cancer Res. 63, 5879-5888 (2003)), renal (Cillo, C. et al. Int. J. Cancer. 51, 892-897 (1992)), bladder (Cantile, M., et al. Oncogene 22, 6462-6468 (2003)), lung (Abe, M. et al. Oncol. Rep. 15, 797-802 (2006)) and ovarian (Cheng, W., et al. Nat. Med. 11, 531-537 (2005)) cancer. In order to determine whether HXArg9 could also block the growth of cells derived from these cancers, we obtained the IC50 using an MTT assay for representative cell lines of each (Table 1).

[5] = test system: A549 (Human non-small cell lung carcinoma); format: cell-based
Description: as §3, §4

B16F10 (Mouse melanoma) = format: cell-based
Description: as §3, §4

[6] = test system: J82 (Human bladder cancer); format: cell-based
Description: as §3, §4

[7] = test system: LNCaP (Human prostate cancer); format: cell-based
Description: as §3, §4

[8] = test system: SK-OV3 (Human ovarian cancer); format: cell-based
Description: as §3, §4

[9] = test system: B16 murine melanoma cells; test: B16 cell growth over a 4 day period (FIGS. 2B, 3); format: cell-based; conditions: 200 μg/ml for 4 hours, counted day 4
Protocol: In FIG. 2B the peptides as indicated were applied to the cells at a concentration of 200 μg/ml for 4 hours. The number of cells present was assessed on the day of treatment (white bars) and on day 4 (diagonal stripes).
A=untreated; B=CXP4; C=HXP4; D=HXP4(3D)2; E=HXP4(3D)3; F=HXP4(3D)4.
as §2

[10] = test system: B16 murine melanoma cells; test: Living and dead B16 cells after 3 hours (FIGS. 2A, 9); format: cell-based; conditions: B16 cells, FIGS. 2 and 3
Protocol: In FIG. 2A the peptides as indicated were applied to the cells at a concentration of 60 μM. The number of living and dead cells were assessed after 3 hours. Black bars=number of cells dead. White bars=number of cells alive.
as §1
The HXArg9 peptide used was the (2D) variant peptide in which the N- and C-terminal amino acids are in the D conformation and all remaining amino acids are in the L conformation. HXArg9 was applied to the cells at a variety of concentrations (μM), and the number of dead and living cells was assessed after 3 hours. Black bars=% cells dead. White bars=% cells alive.
as §2

## Z-VAD
B16 cells
  cell death / apoptosis on co-treatment with HXArg9(2D): significant reduction in cell death; also recorded: significant reduction in the number of cells undergoing apoptosis

## WCPWLDRHGRRRRRRRRR [CX1Arg9, control peptide based on HXArg9 with amino acid substitutions]
[1]
  effect on living/dead cells, cell proliferation: some activity

## WCPWLDRHGRQIKIWFQNRRMKWKK [CXP4]
[2]
  effect in a similar assay, previously shown: ineffective

## CSCC[C@H](NC(=O)[C@H](Cc1c[nH]c2ccccc12)NC(=O)[C@@H]1CCCN1C(=O)[C@H](Cc1ccc(O)cc1)NC(=O)[C@H](N)Cc1c[nH]c2ccccc12)C(=O)N[C@@H](CCCCN)C(=O)N[C@@H](CCCCN)C(=O)N[C@@H](Cc1c[nH]cn1)C(=O)N[C@@H](Cc1c[nH]cn1)C(=O)N[C@@H](CCCNC(=N)N)C(=O)N[C@@H](CCCNC(=N)N)C(=O)N[C@@H](CCCNC(=N)N)C(=O)N[C@@H](CCCNC(=N)N)C(=O)N[C@@H](CCCNC(=N)N)C(=O)N[C@@H](CCCNC(=N)N)C(=O)N[C@@H](CCCNC(=N)N)C(=O)N[C@@H](CCCNC(=N)N)C(=O)N[C@H](CCCNC(=N)N)C(=O)O [HXArg9(2D), WYPWMKKHHRRRRRRRRR]
[3]
  half-life at 1 mM: ~12 h
[4]
  IC50: 24 µM
[5]
  IC50: 19 µM
B16F10 (Mouse melanoma)
  IC50: 20 µM
[6]
  IC50: 22 µM
[7]
  IC50: 21 µM
[8]
  IC50: 22 µM

## WYPWMKKHHRQIKIWFQNRRMKWKK [HXP4]
[1]
  effect on living/dead cells, cell proliferation: no effect
[1]; compared with 3 hour exposures for HXArg9
  time required to achieve the same response: 4 days
[9]
  cell growth over a 4 day period: significantly reduced cell growth

## CSCC[C@@H](N)C(=O)N[C@@H](CS)C(=O)N[C@@H](C)C(=O)N[C@@H](C)C(=O)NCC(=O)N[C@@H](CC(=O)O)C(=O)N[C@@H](CC(=O)O)C(=O)N[C@@H](C)C(=O)N[C@@H](CC(C)C)C(=O)N[C@@H](CCCNC(=N)N)C(=O)N[C@@H](CCCNC(=N)N)C(=O)N[C@@H](CCCNC(=N)N)C(=O)N[C@@H](CCCNC(=N)N)C(=O)N[C@@H](CCCNC(=N)N)C(=O)N[C@@H](CCCNC(=N)N)C(=O)N[C@@H](CCCNC(=N)N)C(=O)N[C@@H](CCCNC(=N)N)C(=O)N[C@H](CCCNC(=N)N)C(=O)O [CX2Arg9(2D), MCAAGDDALRRRRRRRRR, reference compound]
[3]
  half-life at 1 mM: ~12 h
[4]
  IC50: 280 µM
[5]
  IC50: 240 µM
B16F10 (Mouse melanoma)
  IC50: 200 µM
[6]
  IC50: 290 µM
[7]
  IC50: 220 µM
[8]
  IC50: 270 µM

## MCAAGDDALRRRRRRRRR [CX2Arg9, more extensively changed version of the control peptide CX1Arg9, reference compound]
[1]
  effect on living/dead cells, cell proliferation: no effect on cell proliferation

## WYPWMKKHHRQIKIWFQNRRMKWKK [HXP4(3D)1]
[10]
  activity of D-isomer variants of HXP4: slightly higher activity than the other 3D isomers
